Measured values: article PMC2743475 (Bioorganic & medicinal chemistry, 2009)

How the values were obtained:
[1] = system: PC-3M prostate cancer cells; details: PC-3M cells, MTT; cited from earlier work
[2] = system: PC-3M prostate cancer cells; details: PC-3M cells, spheroid disaggregation; cited from earlier work
[3] = system: PC-3M prostate cancer cells; details: mice; cited from earlier work
[4] = in vivo, up to 200 mg/kg; cited from earlier work
[5] = system: prostate cancer cells; details: even at 200 µM in vitro; cited from earlier work
[6] = biological target: Recombinant GSK-3β (Homo sapiens, UniProt P49841); assay: in vitro GSK-3β inhibitory assay using Tau [pS396] phosphoELISA kit
Sequence of Recombinant GSK-3β (P49841 whole entry): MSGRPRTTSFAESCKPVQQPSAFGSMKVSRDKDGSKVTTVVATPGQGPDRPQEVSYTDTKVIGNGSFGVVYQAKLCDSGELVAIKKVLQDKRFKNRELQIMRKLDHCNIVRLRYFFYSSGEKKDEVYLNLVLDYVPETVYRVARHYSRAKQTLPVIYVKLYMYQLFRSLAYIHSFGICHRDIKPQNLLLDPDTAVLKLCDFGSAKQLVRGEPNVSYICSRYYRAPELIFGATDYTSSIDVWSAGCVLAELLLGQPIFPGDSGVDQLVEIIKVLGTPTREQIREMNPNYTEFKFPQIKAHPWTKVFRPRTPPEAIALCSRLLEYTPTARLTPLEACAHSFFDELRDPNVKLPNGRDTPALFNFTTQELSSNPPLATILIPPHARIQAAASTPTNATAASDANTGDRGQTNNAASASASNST

| IC50 [6] [µM] | Structure (SMILES) | in vitro anti-growth / proliferation [1] | in vitro anti-invasive properties / invasion [2] | cytotoxic effects at the test doses [3] | formation of tumor micrometastases in distant organs [3] | orthotopic tumor growth [3] | CNS-depressant effects [4] | cytotoxicity [5] |
| --- | --- | --- | --- | --- | --- | --- | --- | --- |
| – | O=C1NC(=O)/C(=C/c2ccc(O)cc2)N1 [Compound 1, (Z)-5-(4-hydroxybenzylidene)-hydantoin] | potent | potent | without apparent cytotoxic effects | inhibited | decreased | – | – |
| – | CCSc1ccc(/C=C2\NC(=O)NC2=O)cc1 [Compound 2, (Z)-5-(4-(ethylthio)benzylidene)-hydantoin] | potent | potent | without apparent cytotoxic effects | inhibited | decreased | – | – |
| – | CCN(CC)c1ccc(/C=C2\NC(=O)NC2=O)cc1 [Compound 3] | – | – | – | – | – | did not show CNS-depressant effects | lack of cytotoxicity |
| 14.1 ± 1.9 | COc1cccc(/C=C2\NC(=O)NC2=O)c1 [Compound 4] | – | – | – | – | – | – | – |
